Test results from US4443436A, “C-20-Modified macrolide derivatives of the macrolide antibiotics tylosin, desmycosin, macrocin, and lactenocin” (Eli Lilly and Company, priority 1982, dated 1984).
≈ marks a conversion by molar mass, not a printed value. Like-named read-outs stand apart in the source and are kept apart here.

Tests used:
[1] = system: Staphylococcus epidermidis EPI1; assay: MIC, standard agar-dilution assay, Staphylococcus epidermidis EPI1; format: cell-based
Streptococcus Group 9960 = assay: MIC, standard agar-dilution assay, Streptococcus Group 9960; format: cell-based; details: Streptococcus Group 9960, agar dilution
[2] = system: Staphylococcus aureus S13E; assay: MIC, standard agar-dilution assay, Staphylococcus aureus S13E; format: cell-based
[3] = system: Staphylococcus epidermidis EPI2; assay: MIC, standard agar-dilution assay, Staphylococcus epidermidis EPI2; format: cell-based; details: Staphylococcus epidermidis EPI2, agar dilution
[4] = system: Staphylococcus aureus V41; assay: MIC, standard agar-dilution assay, Staphylococcus aureus V41; format: cell-based
[5] = system: Haemophilus influenzae R252; assay: MIC, standard agar-dilution assay, Haemophilus influenzae R252; format: cell-based; details: Haemophilus influenzae R252, ampicillin-resistant strain
[6] = system: Staphylococcus aureus X1.1; assay: MIC, standard agar-dilution assay, Staphylococcus aureus X1.1; format: cell-based
[7] = system: Streptococcus Group D X66; assay: MIC, standard agar-dilution assay, Streptococcus Group D X66; format: cell-based
[8] = system: Streptococcus pyogenes C203; assay: MIC, standard agar-dilution assay, Streptococcus pyogenes C203; format: cell-based; details: Streptococcus pyogenes C203, agar dilution
[9] = system: Staphylococcus aureus X400; assay: MIC, standard agar-dilution assay, Staphylococcus aureus X400; format: cell-based
[10] = system: Streptococcus pneumoniae Park I; assay: microbe, parasite or virus in culture; format: cell-based; details: Streptococcus pneumoniae Park I, agar dilution
[11] = system: Haemophilus influenzae Holt; assay: MIC, standard agar-dilution assay, Haemophilus influenzae Holt; format: cell-based; details: Haemophilus influenzae Holt, ampicillin-sensitive strain
Mycoplasma gallisepticum = assay: MIC, broth-dilution microtiter test, Mycoplasma gallisepticum; format: cell-based
Excerpt: (§1) The MIC's in Table X were obtained using conventional broth-dilution microtiter tests.

Streptococcus bovis 80 = assay: MIC, broth-dilution microtiter test, Streptococcus bovis 80; format: cell-based; details: Streptococcus bovis 80, broth-dilution microtiter
Excerpt: as §1

Staphylococcus aureus = assay: MIC, broth-dilution microtiter test, Staphylococcus aureus; format: cell-based
Excerpt: as §1

[12] = system: Pasteurella multocida 60A; assay: MIC, broth-dilution microtiter test, Pasteurella multocida 60A; format: cell-based; details: Pasteurella multocida 60A, avian isolate, broth-dilution microtiter
Excerpt: as §1

Mycoplasma hyorhinis = assay: MIC, broth-dilution microtiter test, Mycoplasma hyorhinis; format: cell-based
Excerpt: as §1

[13] = system: Pasteurella hemolytica 22C; assay: MIC, broth-dilution microtiter test, Pasteurella hemolytica 22C; format: cell-based; details: Pasteurella hemolytica 22C, broth-dilution microtiter
Excerpt: as §1

[14] = system: Streptococcus pyogenes C203; assay: In vivo protection of mice experimentally infected with S. pyogenes C203; details: Streptococcus pyogenes, mice, doses given 1 and 4 hours post-infection
Method: The C-20 modified derivatives of this invention have shown in vivo antimicrobial activity against experimentally-induced infections in laboratory animals. When two doses of test compound were administered to mice experimentally infected with S. pyogenes C203, the activity observed was measured as an ED50 value [effective dose in mg/kg to protect 50% of the test animals: see Warren Wick, et al., J. Bacteriol. 81, 233-235 (1961)].

[15] = system: Pasteurella multocida 17E; assay: MIC, broth-dilution microtiter test, Pasteurella multocida 17E; format: cell-based; details: Pasteurella multocida 17E, bovine isolate, broth-dilution microtiter
Excerpt: as §1

[16] = Staphylococcus epidermidis, EPI1
[17] = Staphylococcus epidermidis EPI1, agar dilution
[18] = Staphylococcus aureus S13E, agar dilution
[19] = Staphylococcus aureus V41, penicillin-resistant strain, agar dilution
[20] = Staphylococcus aureus X1.1, agar dilution
[21] = Streptococcus Group D X66, agar dilution
[22] = Staphylococcus aureus X400, methicillin-resistant strain, agar dilution

Row | SMILES | MIC [1, 16] [µg/mL] | MIC (Streptococcus Group 9960; GROUP9960, read-out: MIC) [µg/mL] | MIC ([2]; Staphylococcus aureus, S13E) [µg/mL] | MIC ([4]; Staphylococcus aureus, V41) [µg/mL] | MIC ([5]; read-out: MIC) [µg/mL] | MIC ([6]; Staphylococcus aureus, X1.1) [µg/mL] | MIC ([8]; read-out: MIC) [µg/mL] | MIC ([9]; Staphylococcus aureus, X400) [µg/mL] | MIC ([10]; read-out: MIC) [µg/mL] | MIC [1, 17] [µg/mL] | MIC (Streptococcus Group 9960) | MIC [2, 18] [µg/mL] | MIC [3] [µg/mL] | MIC [4, 19] [µg/mL] | MIC ([5]; agar dilution) | MIC [6, 20] [µg/mL] | MIC [7, 21] | MIC [8] [µg/mL] | MIC [9, 22] [µg/mL] | MIC ([11]; agar dilution) | other results
1 | CCC1OC(=O)CC(O)C(C)C(OC2OC(C)C(OC3CC(C)(O)C(O)C(C)O3)C(N(C)C)C2O)C(CCOc2ccc(-c3ccccc3)cc2)CC(C)C(=O)C=CC(C)=CC1COC1OC(C)C(O)C(OC)C1OC (stereo not shown) [Compound 18, 20-DH-20-O-(p-Phenylphenyl)tylosin] | 2 (≈ 1.87 µM) | > 128 | 2 (≈ 1.87 µM) | 2 (≈ 1.87 µM) | > 128 | 2 (≈ 1.87 µM) | 2 (≈ 1.87 µM) | 2 (≈ 1.87 µM) | 1 (≈ 0.934 µM) |  |  |  |  |  |  |  |  |  |  |  | MIC ([3]; read-out: MIC): 0.5 µg/mL (≈ 0.467 µM); MIC ([7]; Streptococcus Group D X66, agar dilution, read-out: MIC): 8 µg/mL (≈ 7.47 µM); MIC ([11]; read-out: MIC): > 128 µg/mL
2 | CCC1OC(=O)CC(O)C(C)C(OC2OC(C)C(OC3CC(C)(O)C(O)C(C)O3)C(N(C)C)C2O)C(CCCl)CC(C)C(=O)C=CC(C)=CC1COC1OC(C)C(O)C(OC)C1OC (stereo not shown) [Compound 7, 20-DH-DO-20-Chlorotylosin] | 1 (≈ 1.07 µM) | > 128 | 1 (≈ 1.07 µM) | 1 (≈ 1.07 µM) | > 128 | 1 (≈ 1.07 µM) | 2 (≈ 2.14 µM) | 2 (≈ 2.14 µM) | 32 (≈ 34.2 µM) |  |  |  |  |  |  |  |  |  |  |  | MIC (Mycoplasma gallisepticum; Mycoplasmoides gallisepticum): 0.78 µg/mL (≈ 0.833 µM); MIC (Streptococcus bovis 80; Streptococcus equinus, read-out: MIC): 12.5 µg/mL (≈ 13.3 µM); MIC (Staphylococcus aureus): 3.12 µg/mL (≈ 3.33 µM); MIC ([12]; read-out: MIC): > 50 µg/mL; MIC (Mycoplasma hyorhinis; Mycoplasma): 50 µg/mL (≈ 53.4 µM); MIC [7]: > 128 µg/mL; MIC ([13]; read-out: MIC): > 50 µg/mL; ED50 ([14]; C203, sc, subcutaneous, read-out: ED50, Subcutaneous): > 6.3 mg/kg; ED50 ([14]; C203, oral, read-out: ED50, Oral): 11 mg/kg; MIC ([15]; read-out: MIC): > 50 µg/mL; MIC ([11]; read-out: MIC): > 128 µg/mL
3 | CCC1OC(=O)CC(O)C(C)C(OC2OC(C)C(OC3CC(C)(O)C(O)C(C)O3)C(N(C)C)C2OC(C)=O)C(CCOc2ccccc2)CC(C)C(=O)C=CC(C)=CC1COC1OC(C)C(O)C(OC)C1OC (stereo not shown) [Compound 64, 20-DH-20-O-Phenyl-2'-O-acetyltylosin] |  |  |  |  |  |  |  |  |  | 2 (≈ 1.93 µM) | -- (Not active at 128 mcg/ml, the highest level tested) | 2 (≈ 1.93 µM) | 2 (≈ 1.93 µM) | 2 (≈ 1.93 µM) | -- (Not active at 128 mcg/ml, the highest level tested) | 2 (≈ 1.93 µM) | -- (Not active at 128 mcg/ml, the highest level tested) | 2 (≈ 1.93 µM) | 4 (≈ 3.86 µM) | -- (Not active at 128 mcg/ml, the highest level tested) | MIC (Mycoplasma gallisepticum; Mycoplasma gallisepticum, broth-dilution microtiter): 1.56 µg/mL (≈ 1.51 µM); MIC (Streptococcus bovis 80): 12.5 µg/mL (≈ 12.1 µM); MIC (Staphylococcus aureus; broth-dilution microtiter): 3.12 µg/mL (≈ 3.01 µM); MIC [12]: -- (Not active at 50 mcg/ml, the highest level tested); MIC (Mycoplasma hyorhinis; Mycoplasma hyorhinis, broth-dilution microtiter): 50 µg/mL (≈ 48.3 µM); MIC [13]: -- (Not active at 50 mcg/ml, the highest level tested); MIC [15]: -- (Not active at 50 mcg/ml, the highest level tested)
4 | CCC1OC(=O)CC(O)C(C)C(OC2OC(C)C(O)C(N(C)C)C2O)C(CCOc2ccc(CO)cc2)CC(C)C(=O)C=CC(C)=CC1COC1OC(C)C(O)C(OC)C1OC (stereo not shown) [Compound 51a] |  |  |  |  |  |  |  |  |  | 0.5 (≈ 0.568 µM) | 16 µg/mL (≈ 18.2 µM) | 0.5 (≈ 0.568 µM) | 0.25 (≈ 0.284 µM) | 0.5 (≈ 0.568 µM) | 32 µg/mL (≈ 36.4 µM) | 0.5 (≈ 0.568 µM) | 16 µg/mL (≈ 18.2 µM) | 0.5 (≈ 0.568 µM) | 1 (≈ 1.14 µM) | 64 µg/mL (≈ 72.7 µM) | 
5 | CCC1OC(=O)CC(O)C(C)C(OC2OC(C)C(OC3CC(C)(O)C(O)C(C)O3)C(N(C)C)C2O)C(CCOc2ncnc3ccccc23)CC(C)C(=O)C=CC(C)=CC1COC1OC(C)C(O)C(OC)C1OC (stereo not shown) [Compound 19a] |  |  |  |  |  |  |  |  |  | 1 (≈ 0.956 µM) | 64 µg/mL (≈ 61.2 µM) | 0.5 (≈ 0.478 µM) | 0.5 (≈ 0.478 µM) | 0.5 (≈ 0.478 µM) | -- (Not active at 128 mcg/ml, the highest level tested) | 0.5 (≈ 0.478 µM) | 32 µg/mL (≈ 30.6 µM) | 4 (≈ 3.82 µM) | 1 (≈ 0.956 µM) | 128 µg/mL (≈ 122 µM) | MIC [10]: 4 µg/mL (≈ 3.82 µM)
